From patent US20250361209A1, “CRYSTAL FORMS OF N-(3-FLUOROPHENYL)-6-(6,7-DIMETHOXYQUINOLIN-4-OXY)-3,4-DIHYDROQUINOLINE-1(2H)-CARBOXAMIDE METHANESULFONATE AND PREPARATION METHOD THEREOF” (Shanghai Yi Feng Biotechnology Co., Ltd., priority 2023, published 2025)

Assay: Test of influencing factors of crystalline forms A, B and C (total impurity)
Type: physicochemical
Settings: methanesulfonate
From the text: Example 3 Test of Influencing Factors of Crystalline Forms A, B and C

[1] = High temperature (60° C.), 0 day
[2] = High temperature (60° C.), 5 days
[3] = High temperature (60° C.), 10 days
[4] = Illumination (5000 + 500 lux), 0 day
[5] = Illumination (5000 + 500 lux), 5 days
[6] = Illumination (5000 + 500 lux), 10 days
[7] = Illumination (5000 + 500 lux), 30 days

Row | Total impurity % (High humidity (RH75%), 0 day) [%] | Total impurity % (High humidity (RH75%), 5 days) [%] | Total impurity % (High humidity (RH75%), 10 days) [%] | Total impurity % (High humidity (RH75%), 30 days) [%] | Total impurity % [1] [%] | Total impurity % [2] [%] | Total impurity % [3] [%] | Total impurity % [4] [%] | Total impurity % [5] [%] | Total impurity % [6] [%] | Total impurity % [7] [%] | Compound
1 | 0.86 | 1.03 | 1.09 | 1.12 | 0.86 | 1.00 | 0.98 | 0.86 | 0.94 | 1.12 | 1.33 | COc1cc2nccc(Oc3ccc4c(c3)CCCN4C(=O)Nc3cccc(F)c3)c2cc1OC [Crystalline form B, N-(3-fluorophenyl)-6-(6,7-dimethoxyquinolin-4-oxy)-3,4-dihydroquinoline-1(2H)-carboxamide methanesulfonate]
2 | 0.91 | 0.92 | 0.99 | 1.25 | 0.91 | 4.50 | 6.96 | 0.91 | 1.89 | 3.70 | 4.21 | COc1cc2nccc(Oc3ccc4c(c3)CCCN4C(=O)Nc3cccc(F)c3)c2cc1OC [Crystalline form A, N-(3-fluorophenyl)-6-(6,7-dimethoxyquinolin-4-oxy)-3,4-dihydroquinoline-1(2H)-carboxamide methanesulfonate]
